Laboratory results as given in patent publication US10357537B2, “Cyclotides as immunosuppressive agents” (priority 2011, dated 2019).
Bridge positions count the residues as written; N and C are the ends. Peptide text beside a SMILES is read from it.

Experiments:
[1] = system: IL-2 surface receptor CD25 on PBMC; test: IL-2 surface receptor CD25 expression, FACS; format: cell-based, human; details: cyclotides 4 μM, CsA 5 μg/mL, PHA-L; stimulated untreated PBMCs = 100%
Description: PBMCs were isolated from blood samples of healthy adults that were provided by the transfusion center of the university hospital in Freiburg (Germany). […] The lymphocyte-enriched layer was transferred into a new vessel and washed three times with PBS and centrifuged again (10 min, twice with 300×g and last time with 800 rpm, 20° C.). For the following experiments, the cells were either stained with CFSE or diluted with medium to 4*10^6 cells/ml. Cells were counted in alight microscope using trypan blue staining and a hemocytometer.
Following purification, PBMCs were equilibrated for 2 h at 37° C. […] This was followed by washing of each well with 100 μl PBS (centrifugation for 5 min, 1000 rpm, 20° C.) and re-suspending the cells in 100 μl medium for further assays.
Activated cells were transferred into a 96-well plate, centrifuged (5 min, 1000 rpm, 20° C.), washed one time with 100 μl FACS-buffer and stained with CD25 PE for 15 min at 4° C. Then cells were washed twice with FCS-buffer and resuspended in 100 μl FACS-buffer, transferred into FACS vials with a total volume of 250 μl and the expression of IL2 surface receptor CD25 was measured by FACS analysis using a FACSCalibur instrument (BD Biosciences).
Amongst other pathways, T-cell proliferation is determined by binding of the cytokine IL-2 to its cell surface receptor. Therefore the influence of cyclotides on the expression of the IL-2 receptor was tested. […] As control substance CsA was used. […] Treatment with V10A yields 114%±12.5, V10K yields 112%±16.3 and T8K yields 114%±17.3 CD25 surface expression after 24 h as compared to the control (FIG. 11B).

[2] = system: splenic T-cells of naive mouse group; test: Cytokine release of splenic T-cells of naive EAE mice treated in vitro, ELISA; format: cell-based; details: for IL2 release after 48 h incubation: V10K 4 μM, MOG35-55 30 μg/mL
Description: FIG. 22. Effect on cytokine release of ex vivo isolated PBMC at day 1 and 2. […] To approve this EAE TH bias towards TH17 and TH1 cells, IL4 release was again analyzed, but this TH2 cytokine was not detectable (I, J), as already indicated in (D).
Spleens of sacrificed mice were taken and transferred into a 6 cm Petri Dish with 5 mL sterile PBS. To receive a spleenocyte suspension, spleens were meshed and filtered through 70 μm nylon sieve. Cells were centrifuged at 1200 rpm for 5 minutes and resuspended in RPMI 1640 media supplemented with 10% fetal calf serum (FCS), 2 mM L-glutamine, penicillin (100 U/mL), and streptomycin (100 μg/mL). Spleenocytes were cultivated at a concentration of 3×10^6/mL in a 48-well flat-bottom plate (500 μL/well). Cells were stimulated with 30 μg/mL MOG35-55 or left untreated and incubated at 37° C. for three days. Supernatants and cells were taken stored at −20° C. until further experiments. […] After 12 hours MOG or T20K was added to appropriate wells. Supernatants were stored after 24 hours and after 48 hours at −20° C.
Supernatants of stimulated spleenocytes were analyzed for their IL2, IL17, INFγ, IL4 and IL22 cytokine release using anti-mouse antibodies for ELISA from eBioscience according to the manufacturer's instructions. The color reaction was evaluated at an optical density of 450 nm by the microplate reader Synergy H4 (BioTek).

[3] = system: IFN-gamma production of activated PBMCs; test: IFN-gamma secretion of PBMC, ELISA-based FACS; format: cell-based, human; details: for IFN-gamma production as compared to the control, 36 h: 36 h past stimulation
Description: FIG. 14. IFN-γ secretion by cyclotide-treated PBMC. […] Untreated cells were used as control. Following 24 h or 36 h of cultivation, the cells were restimulated with PMA/Ionomycin for further 6 hour. The amount of IFN-γ was measured in the supernatant of cultured cells using an ELISA-based flow cytometric method. The data are presented as mean and standard deviation (SD) of three independent experiments.
Activated cells were resuspended in 50 μl of medium, transferred into a 96-well plate and treated with 10 μg/ml PHA-L. After incubation for 24 h cells were re-stimulated with PMA (50 ng/ml) und ionomycin (500 ng/ml) for 6 h. Next, the cells were transferred into Eppendorf tubes, centrifuged (5 min, 3000 RPM, 20° C.) und 50 μl of the supernatant was again transferred into new tubes and stored at −20° C. Production of cytokines was measured and quantified using the FlowCytomix™ kit according to manufacturer's instructions.
Therefore it is of interest to determine whether cyclotides only have anti-proliferative effects or also affect the effector function of T-lymphocytes, which would directly relate to changes in the IFN-gamma and TNF-alpha production. Therefore, the production of both cytokines of cyclotide-treated, activated PBMCs at an early time point after PBMC activation was tested.

[4] = system: activated human primary PBMC; test: Anti-proliferative CFSE cell division assay on anti-CD3/CD28-activated PBMC; details: CFSE, flow cytometry; extract 50-100 μg/mL, cyclotides 1.8-14 μM, melittin 0.05-1.6 μM
Outline: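 Healthy-donor PBMC were CFSE-labelled (5 μM, 10 min, 37° C.), activated with anti-CD3/CD28 and cultured in RPMI 1640 with 10% FCS at 37° C. with the cyclotide mutants/variants. Proliferation was read as cell division by flow-cytometric CFSE histogram analysis.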

Row | Compound | CD25 expression after 48 h [1] | CD25 surface expression after 24 hours [1] | IL2 release after 48 h incubation ([2]; T20K 4 μM) | IFN-gamma production as compared to the control, 36 h [3] | IL17 production after 48 h ([2]; T20K 4 μM) | IL2 inhibition after 24 h ([2]; T20K 4 μM compared with CsA 5 μg/mL) | INFγ and IL22 cytokine release ([2]; dependent on the cyclotide addition) | cell division / proliferation of activated PBMC (in words) [4] | IFN-gamma concentration as compared to the control, 24 h ([3]; 24 h + 6 h PMA/ionomycin, T20K 4 μM, CsA 5 μg/mL)
1 | kalata B1 mutant GLPVCGETCKGGTCNTPGCTCSWPVCTRN (SEQ ID No. 10) [Kalata V10K] | no significant change in receptorexpression | 112%±16.3 | shows a inhibitory capacity towards IL2 release | did not induce significant changes in the level of IFN-gamma |  |  |  |  | 
2 | CC(C)C[C@@H]1NC(=O)CNC(=O)[C@H](CC(N)=O)NC(=O)[C@H](CCCNC(=N)N)NC(=O)[C@H]([C@@H](C)O)NC(=O)[C@@H]2CSSC[C@@H]3NC(=O)[C@H]([C@@H](C)O)NC(=O)CNC(=O)CNC(=O)[C@H](C(C)C)NC(=O)[C@@H]4CSSC[C@H](NC(=O)[C@H](CCCCN)NC(=O)[C@H](CSSC[C@H](NC(=O)[C@H](C(C)C)NC(=O)[C@@H]5CCCN5C1=O)C(=O)NCC(=O)N[C@@H](CCC(=O)O)C(=O)N[C@@H]([C@@H](C)O)C(=O)N4)NC(=O)CNC(=O)[C@@H]1CCCN1C(=O)[C@H]([C@@H](C)O)NC(=O)[C@H](CC(N)=O)NC3=O)C(=O)N[C@@H](CO)C(=O)N[C@@H](Cc1c[nH]c3ccccc13)C(=O)N1CCC[C@H]1C(=O)N[C@@H](C(C)C)C(=O)N2 [Kalata T20K] (cyclo(CGETCVGGTCNTPGCKCSWPVCTRNGLPV); disulfide 1-15, 5-17, 10-22 (inferred); ring closure inferred) | 46%±18.2 | 79%±10.1 | significantly inhibited | did not induce significant changes in the level of IFN-gamma | inhibited | non-significant to the immune suppressive agent CsA | repressed significantly | show anti-proliferative capacity | 21%±13.2
